Measurements as given in patent US12479830B2, “Homopiperazinyl and homopiperidinyl quinazolin-4(3H)-one derivatives having multimodal activity against pain” (ESTEVE PHARMACEUTICALS, S.A., priority 2019, dated 2025).

How the values were obtained:
[1] = target: Human α2δ-1 subunit of Cav2.2 calcium channel (Homo sapiens, UniProt P54289); assay: Human α2δ-1 subunit of Cav2.2 calcium channel assay ([3H]-gabapentin binding); conditions: binding to the α2δ-1 subunit of voltage-gated calcium channels, expressed as Ki class; + also covers inhibition between 1% and 50%
Description: Human α2δ-1 Subunit of Cav2.2 Calcium Channel Assay
Human α2δ-1 enriched membranes (2.5 μg) were incubated with 15 nM of radiolabeled [^3H]-Gabapentin in assay buffer containing Hepes-KOH 10 mM. pH 7.4. NSB (non specific binding) was measured by adding 10 μM pregabalin. The binding of the test compound was measured at either one concentration (% inhibition at 1 or 10 μM) or five different concentrations to determine affinity values (Ki). After 60 min incubation at 27° C., binding reaction was terminated by filtering through Multiscreen GF/C (Millipore) presoaked in 0.5% polyethyleneimine in Vacuum Manifold Station, followed by 3 washes with ice-cold filtration buffer containing 50 mM Tris-HCl, pH 7.4. Filter plates were dried at 60° C. for 1 h and 30 μL of scintillation cocktail were added to each well before radioactivity reading. Readings were performed in a Trilux 1450 Microbeta radioactive counter (Perkin Elmer).

Human σ1 receptor = target: T1, Human σ1 receptor (Homo sapiens, UniProt Q99720); assay: Human σ1 receptor radioligand assay ([3H](+)-pentazocine binding); conditions: binding to the σ1 receptor, expressed as Ki class; + also covers inhibition between 1% and 50%
T1 construct: expressed in transfected cells; host or cells: HEK-293
Description: Human σ1 Receptor Radioligand Assay
Transfected HEK-293 membranes (7 μg) were incubated with 5 nM of [^3H](+)-pentazocine in assay buffer containing Tris-HCl 50 mM at pH 8. NBS (non-specific binding) was measured by adding 10 μM haloperidol. The binding of the test compound was measured at either one concentration (% inhibition at 1 or 10 μM) or five different concentrations to determine affinity values (Ki). Plates were incubated at 37° C. for 120 minutes. After the incubation period, the reaction mix was then transferred to MultiScreen HTS, FC plates (Millipore), filtered and plates were washed 3 times with ice-cold 10 mM Tris-HCL (pH7.4). Filters were dried and counted at approximately 40% efficiency in a MicroBeta scintillation counter (Perkin-Elmer) using EcoScint liquid scintillation cocktail.

Human α2δ-1 subunit of Cav2.2 calcium channel, sequence (P54289 25-1103): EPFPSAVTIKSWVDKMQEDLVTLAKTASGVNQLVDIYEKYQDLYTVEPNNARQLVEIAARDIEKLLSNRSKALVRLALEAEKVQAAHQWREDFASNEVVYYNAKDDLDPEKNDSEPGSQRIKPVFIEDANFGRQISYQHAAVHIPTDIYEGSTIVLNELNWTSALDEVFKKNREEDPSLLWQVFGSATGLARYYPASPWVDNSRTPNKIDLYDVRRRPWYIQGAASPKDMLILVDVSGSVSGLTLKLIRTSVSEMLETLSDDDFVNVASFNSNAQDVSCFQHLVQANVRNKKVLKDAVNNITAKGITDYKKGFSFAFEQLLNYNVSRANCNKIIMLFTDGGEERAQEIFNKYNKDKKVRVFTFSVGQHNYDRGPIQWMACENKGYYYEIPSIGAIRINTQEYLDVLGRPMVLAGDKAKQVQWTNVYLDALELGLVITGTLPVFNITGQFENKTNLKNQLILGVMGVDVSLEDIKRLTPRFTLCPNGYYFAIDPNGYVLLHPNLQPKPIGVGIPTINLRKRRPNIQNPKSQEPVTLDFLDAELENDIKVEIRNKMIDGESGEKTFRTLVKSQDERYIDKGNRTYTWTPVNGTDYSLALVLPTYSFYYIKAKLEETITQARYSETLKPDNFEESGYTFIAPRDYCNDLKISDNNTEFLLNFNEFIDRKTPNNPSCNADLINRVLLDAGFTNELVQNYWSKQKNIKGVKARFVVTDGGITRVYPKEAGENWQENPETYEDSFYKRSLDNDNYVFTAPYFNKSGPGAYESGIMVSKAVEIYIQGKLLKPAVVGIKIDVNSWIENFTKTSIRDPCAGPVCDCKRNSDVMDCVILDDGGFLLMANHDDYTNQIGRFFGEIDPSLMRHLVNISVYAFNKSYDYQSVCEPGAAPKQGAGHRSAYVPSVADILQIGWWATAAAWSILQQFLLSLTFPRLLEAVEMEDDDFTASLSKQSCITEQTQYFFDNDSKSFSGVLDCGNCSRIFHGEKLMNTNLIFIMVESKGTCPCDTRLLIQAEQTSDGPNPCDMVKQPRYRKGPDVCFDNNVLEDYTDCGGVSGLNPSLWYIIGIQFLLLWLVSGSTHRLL
T1 sequence (Q99720 whole entry): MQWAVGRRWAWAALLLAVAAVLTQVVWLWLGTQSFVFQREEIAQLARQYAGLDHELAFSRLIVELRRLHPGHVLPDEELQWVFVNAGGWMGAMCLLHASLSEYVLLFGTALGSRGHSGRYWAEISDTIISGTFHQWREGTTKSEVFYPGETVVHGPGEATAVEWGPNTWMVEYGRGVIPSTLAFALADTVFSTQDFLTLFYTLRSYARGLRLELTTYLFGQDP

With `CCC[C@H](c1nc2ccc(Br)cc2c(=O)n1CCC)N1CCNC[C@H](C)C1` [Example 67, 6-bromo-2-((R)-1-((S)-6-methyl-1,4-diazepan-1-yl)butyl)-3-propylquinazolin-4(3H)-one] the Ki [1] was < 500 nM and the Ki (Human σ1 receptor) was > 1000 nM.
For `CCC[C@H](c1nc2c(F)cc(F)cc2c(=O)n1CC)N1CCN[C@H](C)CC1` [Example 250, 3-ethyl-6,8-difluoro-2-((R)-1-((R)-5-methyl-1,4-diazepan-1-yl)butyl)quinazolin-4(3H)-one], the Ki [1] was > 5000 nM and the Ki (Human σ1 receptor) was > 1000 nM.
`CCCC(c1nc2cnccc2c(=O)n1CC)N1CCCN(C)CC1` (stereo not drawn) [Example 17, 3-ethyl-2-(1-(4-methyl-1,4-diazepan-1-yl)butyl)pyrido[3,4-d]pyrimidin-4(3H)-one] was tested, and the Ki [1] was < 500 nM and the Ki (Human σ1 receptor) was > 1000 nM.
In the case of `CCCC(c1nc2ncc(F)cc2c(=O)n1CC)N1CCCN(C)CC1` (stereo not drawn) [Example 182], the Ki [1] is reported as < 500 nM and the Ki (Human σ1 receptor) is reported as > 1000 nM.
With `CCC[C@H](c1nc2cc(F)c(OC)cc2c(=O)n1CC)N1CCN(C)C[C@@H](C)C1` [Example 237, 2-((R)-1-((R)-4,6-dimethyl-1,4-diazepan-1-yl)butyl)-3-ethyl-7-fluoro-6-methoxyquinazolin-4(3H)-one] the Ki [1] was < 500 nM and the Ki (Human σ1 receptor) was > 1000 nM.
In the case of `CCCC(c1nc2ncccc2c(=O)n1CC)N1CCCN(C)CC1` (stereo not drawn) [Example 180, 3-ethyl-2-(1-(4-methyl-1,4-diazepan-1-yl)butyl)pyrido[2,3-d]pyrimidin-4(3H)-one], the Ki [1] is reported as < 500 nM and the Ki (Human σ1 receptor) is reported as > 1000 nM.
`CCCC(c1nc2ccc(Cl)cc2c(=O)n1CCC)N1CCCN(CC)CC1` (stereo not drawn) [Example 79, 6-chloro-2-(1-(4-ethyl-1,4-diazepan-1-yl)butyl)-3-propylquinazolin-4(3H)-one] was tested, and the Ki [1] was < 500 nM and the Ki (Human σ1 receptor) was < 500 nM.
For `CCCC(c1nc2ccc(Cl)cc2c(=O)n1CCC)N1CCCN(C)CC1` (stereo not drawn) [Example 23, 6-chloro-2-(1-(4-methyl-1,4-diazepan-1-yl)butyl)-3-propylquinazolin-4(3H)-one], the Ki [1] was < 500 nM and the Ki (Human σ1 receptor) was 500 to 1000 nM.
In the case of `CCC[C@H](c1nc2ccc(F)cc2c(=O)n1CCC)N1CCCN(CC)CC1` [Example 212, (R)-2-(1-(4-ethyl-1,4-diazepan-1-yl)butyl)-6-fluoro-3-propylquinazolin-4(3H)-one], the Ki [1] is reported as < 500 nM and the Ki (Human σ1 receptor) is reported as < 500 nM.
For `CCC[C@@H](c1nc2ncc(Br)cc2c(=O)n1CC)N1CCNC[C@H](C)C1` [Example 200, 6-bromo-3-ethyl-2-((S)-1-((S)-6-methyl-1,4-diazepan-1-yl)butyl)pyrido[2,3-d]pyrimidin-4(3H)-one], the Ki [1] was > 5000 nM and the Ki (Human σ1 receptor) was > 1000 nM.
For `CCC[C@@H](c1nc2ncc(F)cc2c(=O)n1CC1CC1)N1CCN[C@H](C)CC1` [Example 193, 3-(cyclopropylmethyl)-6-fluoro-2-((S)-1-((R)-5-methyl-1,4-diazepan-1-yl)butyl)pyrido[2,3-d]pyrimidin-4(3H)-one], the Ki [1] was > 5000 nM and the Ki (Human σ1 receptor) was > 1000 nM.
In the case of `CCC[C@H](c1nc2ccc(F)cc2c(=O)n1Cc1ccoc1)N1CCCN(CC)CC1` [Example 228, (R)-2-(1-(4-ethyl-1,4-diazepan-1-yl)butyl)-6-fluoro-3-(furan-3-ylmethyl)quinazolin-4(3H)-one], the Ki [1] is reported as 500 to 5000 nM and the Ki (Human σ1 receptor) is reported as < 500 nM.
`CCC[C@@H](c1nc2ccc(Br)cc2c(=O)n1CC)N1CCN(C)C[C@H](C)C1` [Example 37, 6-bromo-2-((S)-1-((S)-4,6-dimethyl-1,4-diazepan-1-yl)butyl)-3-ethylquinazolin-4(3H)-one] was tested, and the Ki [1] was > 5000 nM and the Ki (Human σ1 receptor) was > 1000 nM.
`CCCC(c1nc2cc(F)c(Br)cc2c(=O)n1CC)N1CCCNCC1` (stereo not drawn) [Example 27, 2-(1-(1,4-diazepan-1-yl)butyl)-6-bromo-3-ethyl-7-fluoroquinazolin-4(3H)-one] was tested, and the Ki [1] was < 500 nM and the Ki (Human σ1 receptor) was > 1000 nM.
With `CCCC(c1nc2ccc(F)c(F)c2c(=O)n1CC)N1CCCNCC1` (stereo not drawn) [Example 81, 2-(1-(1,4-diazepan-1-yl)butyl)-3-ethyl-5,6-difluoroquinazolin-4(3H)-one] the Ki [1] was < 500 nM and the Ki (Human σ1 receptor) was 500 to 1000 nM.
